Experimental data from EP4603105A1, “PHARMACEUTICAL COMPOSITION CONTAINING CYCLIC COMPOUND HAVING SELECTIVE KRAS INHIBITORY EFFECT AGAINST HRAS AND NRAS” (CHUGAI SEIYAKU KABUSHIKI KAISHA, priority 2022, dated 2024).
pIC50, pKd: −log10 of the molar value. Where a SMILES comes first, the peptide text is derived from it. Bridges are numbered along the chain shown (N, C = ends). [ ]: non-standard residue; d: D form. The star is where a group is joined. hPhe(3-Cl-4-CF3) = N[C@@H](CCc1ccc(C(F)(F)F)c(Cl)c1)C(=O)O; NPrPhe(4-CF3) = CCCN[C@@H](Cc1ccc(C(F)(F)F)cc1)C(=O)O; NMeGly(cPent) = CN[C@H](C(=O)O)C1CCCC1; Pro(4,4-F2) = O=C(O)[C@@H]1CC(F)(F)CN1; Pro(4S-Me) = C[C@@H]1CN[C@H](C(=O)O)C1; NMeD = CN[C@@H](CC(=O)O)C(=O)O; NMeL = CN[C@@H](CC(C)C)C(=O)O; Morpholide = C1CN(*)CCO1; Ac5c = NC1(C(=O)O)CCCC1; Aze = O=C(O)[C@@H]1CCN1; Ac4c = NC1(C(=O)O)CCC1; Sar = CNCC(=O)O

How the values were obtained:
[1] = target: GDP-bound KRAS wild-type protein (Homo sapiens, UniProt P01116); test: Binding to KRAS by surface plasmon resonance (SPR), dissociation constant KD
Chain of GDP-bound KRAS wild-type protein (P01116 1-188 isoform P01116-2): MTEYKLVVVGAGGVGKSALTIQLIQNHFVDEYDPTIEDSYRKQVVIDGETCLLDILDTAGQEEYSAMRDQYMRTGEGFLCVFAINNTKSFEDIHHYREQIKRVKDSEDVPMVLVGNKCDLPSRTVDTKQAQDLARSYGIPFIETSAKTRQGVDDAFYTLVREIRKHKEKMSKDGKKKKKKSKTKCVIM
Summary of the method: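 SPR, 30°C: Avi-biotin RAS·GDP captured via Biotin CAPture (~100–300 RU); running buffer HBS pH 7.4, 1 mM DTT, 10 mM MgCl2, 0.01% Tween 20, 10 µM GDP, 4% DMSO. Single-cycle kinetics, 100 µL/min, 75 s injections; 1:1 model → KD.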

[2] = target: GDP-bound NRAS wild-type protein (Homo sapiens, UniProt P01111); test: Binding to NRAS by surface plasmon resonance (SPR), KD and KD ratio to KRAS
Chain of GDP-bound NRAS wild-type protein (P01111 whole entry): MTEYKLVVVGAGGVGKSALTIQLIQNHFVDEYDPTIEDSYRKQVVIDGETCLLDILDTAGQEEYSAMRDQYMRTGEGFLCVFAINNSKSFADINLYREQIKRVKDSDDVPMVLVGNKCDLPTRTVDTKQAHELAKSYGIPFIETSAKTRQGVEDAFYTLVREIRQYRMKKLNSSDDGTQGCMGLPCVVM
Summary of the method: (§1)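 Running buffer contained 10 µM GDP and 10 mM MgCl2 to keep RAS in the GDP state, with 4% DMSO at pH 7.4. Compounds were flowed at 100 µL/min in 75 s steps of rising concentration over captured biotin-Avi RAS at 30°C. Sensorgrams were fitted 1:1 for KD.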

[3] = target: HRAS wild-type protein (Homo sapiens, UniProt P01112); test: Binding to HRAS by surface plasmon resonance (SPR), KD and KD ratio to KRAS
Chain of HRAS wild-type protein (P01112 whole entry): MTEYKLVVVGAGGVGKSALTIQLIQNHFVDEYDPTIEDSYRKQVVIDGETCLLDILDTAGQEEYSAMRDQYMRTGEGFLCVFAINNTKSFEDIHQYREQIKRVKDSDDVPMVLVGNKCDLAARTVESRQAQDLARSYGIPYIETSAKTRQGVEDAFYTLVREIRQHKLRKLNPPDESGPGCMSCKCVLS
Summary of the method: as §1

[4] = test system: human lung cancer strain NCI-H441; type: cell-based
Summary of the method: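 Step one: dispense the test compound in serial DMSO dilutions. Step three: add the reagent and measure […].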

[5] = ratio of KD for GDP-bound NRAS wild-type protein to KD for KRAS
[6] = ratio of KD for HRAS wild-type protein to KD for KRAS
[7] = Single Cycle Kinetics, 1:1 binding model
[8] = ratio of the KD value with respect to GDP-bound NRAS wild-type protein to the KD value with respect to KRAS
[9] = ratio of the KD value with respect to HRAS wild-type protein to the KD value with respect to KRAS

SMILES	pKd ([1]; 1:1 binding model)	NRAS /KRAS [2, 5]	HRAS /KRAS [3, 6]	pIC50 [4]	pKd [1, 7]	NRAS /KRAS [2, 8]	HRAS /KRAS [3, 9]	pKd ([1]; Single Cycle Kinetics)
CCO[C@@H]1C[C@H]2C(=O)NC3(CC(C)(C)C3)C(=O)N(C)[C@@H](C3CCCC3)C(=O)N(C)[C@H](C(=O)N(C)CC)CC(=O)N(C)[C@@H](CC(C)C)C(=O)N[C@@H]([C@@H](C)CC)C(=O)N(C)CC(=O)N(C)[C@H]3C/C=C\CCN(C3=O)[C@@H](Cc3ccc(C(F)F)cc3)C(=O)N(C)CC(=O)N[C@@H](CCc3cc(C)c(C4CC4)c(C)c3)C(=O)N2C1 [PP3148]	8.62	A (a compound having 10 or more and less than 20 is denoted as A)	A (a compound having 10 or more and less than 20 is denoted as A)	7.12				
CCO[C@@H]1C[C@H]2C(=O)NC3(CC(C)(C)C3)C(=O)N(C)[C@@H](C3CCCC3)C(=O)N(C)[C@H](C(=O)N(C)CC)CC(=O)N(C)[C@@H](CC(C)C)C(=O)N[C@@H]([C@@H](C)CC)C(=O)N(C)CC(=O)N(C)[C@H]3C/C=C\CCN(C3=O)[C@@H](Cc3ccc(C(F)F)cc3)C(=O)N(C)CC(=O)N[C@@H](CCc3cc(F)c4c(c3)CCC4)C(=O)N2C1 [PP3149]	9.08	A (a compound having 10 or more and less than 20 is denoted as A)	A (a compound having 10 or more and less than 20 is denoted as A)	7.25				
CCCO[C@@H]1C[C@H]2C(=O)NC3(CC(C)(C)C3)C(=O)N(C)[C@@H](C3CCCC3)C(=O)N(C)[C@H](C(=O)N(C)CC)CC(=O)N(C)[C@H]3CCCc4ccc(cc4)C[C@@H](C(=O)N(C)CC(=O)N[C@@H](CCc4ccc(C(F)(F)F)c(OC)c4)C(=O)N2C1)N1CC/C=C\C[C@@H](C1=O)N(C)C(=O)CN(C)C(=O)[C@H]([C@@H](C)CC)NC3=O [PP3083]	10.11	A (a compound having 10 or more and less than 20 is denoted as A)	A (a compound having 10 or more and less than 20 is denoted as A)	8.60				
CCO[C@@H]1C[C@H]2C(=O)NC3(CCC3)C(=O)N(C)[C@@H](C3CCCC3)C(=O)N(C)[C@H](C(=O)N3CCOCC3)CC(=O)N(C)[C@@H](CC3CCCC3)C(=O)N[C@@H]([C@@H](C)CC)C(=O)N(C)CC(=O)N(C)[C@H]3CCCCCN(C3=O)[C@@H](Cc3ccc(C(F)(F)F)cc3)C(=O)N(C)CC(=O)N[C@@H](CCc3cc(F)c(C(F)(F)F)c(F)c3)C(=O)N2C1 [PP0685]				7.28	9.10	B (a compound having 3 or more and less than 10 is denoted as B)	B (a compound having 3 or more and less than 10 is denoted as B)	
CCO[C@@H]1C[C@H]2C(=O)NC3(CC(C)(C)C3)C(=O)N(C)[C@@H](C3CCCC3)C(=O)N(C)[C@H](C(=O)N(C)CC)CC(=O)N(C)[C@@H](CC(C)C)C(=O)N[C@@H]([C@@H](C)CC)C(=O)N(C)CC(=O)N(C)[C@H]3C/C=C\CCN(C3=O)[C@@H](Cc3ccc(C(F)F)cc3)C(=O)N(C)CC(=O)N[C@@H](CCc3cc(F)c(Cl)c(OC)c3)C(=O)N2C1 [PP3142]	9.36	A (a compound having 10 or more and less than 20 is denoted as A)	A (a compound having 10 or more and less than 20 is denoted as A)	7.41				
C=CCCC[C@H]1C(=O)N[C@@H]([C@@H](C)CC)C(=O)N(C)CC(=O)N(C)[C@H]2CCCCCN(C2=O)[C@@H](Cc2ccc(C(F)(F)F)cc2)C(=O)N(C)CC(=O)N[C@@H](CCc2cc(F)c(C(F)(F)F)c(F)c2)C(=O)N2C[C@H](OCC)C[C@H]2C(=O)N[C@](C)(CC=C)C(=O)N(C)[C@@H](C2CCCC2)C(=O)N(C)[C@H](C(=O)N2CCOCC2)CC(=O)N1C [PP0880]		B (a compound having 3 or more and less than 10 is denoted as B)	B (a compound having 3 or more and less than 10 is denoted as B)	6.80				8.35
CCCN1C(=O)CN(C)C(=O)[C@@H]2CCN2C(=O)[C@H]([C@@H](C)CC)NC(=O)[C@H](CC(C)C)N(C)C(=O)C[C@@H](C(=O)N2CCOCC2)N(C)C(=O)[C@H](C2CCCC2)N(C)C(=O)C2(CCCC2)NC(=O)[C@@H]2C[C@H](C)CN2C(=O)[C@H](CCc2ccc(C(F)(F)F)c(Cl)c2)NC(=O)CN(C)C(=O)[C@@H]1Cc1ccc(C(F)(F)F)cc1 [PP0453] ([NMeL]I[Aze][Sar][NPrPhe(4-CF3)][Sar][hPhe(3-Cl-4-CF3)][Pro(4S-Me)][Ac5c][NMeGly(cPent)][NMeD]-Morpholide; lactam N-11)				7.69	8.92	B (a compound having 3 or more and less than 10 is denoted as B)	C (A compound having a KD ratio of 0.1 or more and less than 3 is denoted as C)	
CCO[C@@H]1C[C@H]2C(=O)NC3(CCC3)C(=O)N(C)[C@@H](C3CCCC3)C(=O)N(C)[C@H](C(=O)N(C)C)CC(=O)N(C)[C@@H](CC(C)C)C(=O)N[C@@H]([C@@H](C)CC)C(=O)N(C)CC(=O)N(C)[C@H]3CCCCCN(C3=O)[C@@H](Cc3ccc(C(F)(F)F)cc3)C(=O)N(C)CC(=O)N[C@@H](CCc3cc(F)c(C(F)(F)F)c(F)c3)C(=O)N2C1 [PP0469]				7.44	9.12	B (a compound having 3 or more and less than 10 is denoted as B)	B (a compound having 3 or more and less than 10 is denoted as B)	
CCO[C@@H]1C[C@H]2C(=O)NC3(CCC3)C(=O)N(C)[C@@H](C3CCCC3)C(=O)N(C)[C@H](C(=O)N(C)C)CC(=O)N(C)[C@@H](Cc3ccccc3)C(=O)N[C@@H]([C@@H](C)CC)C(=O)N(C)CC(=O)N(C)[C@H]3CCCCCN(C3=O)[C@@H](Cc3ccc(C(F)(F)F)cc3)C(=O)N(C)CC(=O)N[C@@H](CCc3cc(F)c(C(F)(F)F)c(F)c3)C(=O)N2C1 [PP0672]				7.71	9.52	B (a compound having 3 or more and less than 10 is denoted as B)	B (a compound having 3 or more and less than 10 is denoted as B)	
C#CC[C@H]1C(=O)N[C@@H]([C@@H](C)CC)C(=O)N(C)CC(=O)N(C)[C@H]2C/C=C\CCN(C2=O)[C@@H](Cc2ccc(C(F)(F)F)cc2)C(=O)N(C)CC(=O)N[C@@H](CCc2ccc(C(F)(F)F)c(OC)c2)C(=O)N2C[C@H](F)C[C@H]2C(=O)NC2(CC(C)(C)C2)C(=O)N(C)[C@@H](CCC=C)C(=O)N(C)[C@H](C(=O)N(C)C)CC(=O)N1C [PP3126]	9.09	AA (a compound having 20 or more is denoted as AA)	A (a compound having 10 or more and less than 20 is denoted as A)	6.94				
CCO[C@@H]1C[C@H]2C(=O)NC3(CC(C)(C)C3)C(=O)N(C)[C@@H](C(CC)CC)C(=O)N(C)[C@H](C(=O)N(C)C)CC(=O)N(C)[C@@H](CC3CC3)C(=O)N[C@@H]([C@@H](C)CC)C(=O)N(C)CC(=O)N(C)[C@H]3C/C=C\CCN(C3=O)[C@@H](Cc3ccc(C)cc3)C(=O)N(C)CC(=O)N[C@@H](CCc3ccc(Cl)c(Cl)c3)C(=O)N2C1 [PP2182]				7.71	9.14	AA (a compound having 20 or more is denoted as AA)	A (a compound having 10 or more and less than 20 is denoted as A)	
CCCN1C(=O)CN(C)C(=O)[C@@H]2CCN2C(=O)[C@H]([C@@H](C)CC)NC(=O)[C@H](CC(C)C)N(C)C(=O)C[C@@H](C(=O)N(C)C)N(C)C(=O)[C@H](C2CCCC2)N(C)C(=O)C2(CCC2)NC(=O)[C@@H]2CC(F)(F)CN2C(=O)[C@H](CCc2ccc(C(F)(F)F)c(Cl)c2)NC(=O)CN(C)C(=O)[C@@H]1Cc1ccc(C(F)(F)F)cc1 [PP0432] ([NMeL]I[Aze][Sar][NPrPhe(4-CF3)][Sar][hPhe(3-Cl-4-CF3)][Pro(4,4-F2)][Ac4c][NMeGly(cPent)][NMeD]-NMe2; lactam N-11)				7.97	9.77	B (a compound having 3 or more and less than 10 is denoted as B)	B (a compound having 3 or more and less than 10 is denoted as B)	
CC[C@H](C)[C@@H]1NC(=O)[C@H](CC(C)C)N(C)C(=O)C[C@@H](C(=O)N2CCOCC2)N(C)C(=O)[C@H](C2CCCC2)N(C)C(=O)C2(CCCC2)NC(=O)[C@@H]2CCCN2C(=O)[C@H](CCc2ccc(C(F)(F)F)c(Cl)c2)NC(=O)CN(C)C(=O)[C@H](Cc2ccccc2)N2CCCCC[C@@H](C2=O)N(C)C(=O)CN(C)C1=O [PP0611]				7.05	9.14	B (a compound having 3 or more and less than 10 is denoted as B)	B (a compound having 3 or more and less than 10 is denoted as B)	
CCO[C@@H]1C[C@H]2C(=O)NC3(CCC3)C(=O)N(C)[C@@H](C3CCCC3)C(=O)N(C)[C@H](C)CC(=O)N(C)[C@@H](CC(C)C)C(=O)N[C@@H]([C@@H](C)CC)C(=O)N(C)CC(=O)N(C)[C@H]3C/C=C\CCN(C3=O)[C@@H](Cc3ccc(C(F)(F)F)cc3)C(=O)N(C)CC(=O)N[C@@H](CCc3cc(F)c(C(F)(F)F)c(F)c3)C(=O)N2C1 [PP1100]		B (a compound having 3 or more and less than 10 is denoted as B)	B (a compound having 3 or more and less than 10 is denoted as B)	7.75				9.72
CCC(CC)[C@H]1C(=O)N(C)[C@H](C(=O)N(C)C)CC(=O)N(C)[C@@H](COC)C(=O)N[C@@H]([C@@H](C)CC)C(=O)N(C)CC(=O)N(C)[C@H]2C/C=C\CCN(C2=O)[C@@H](Cc2ccc(C)cc2)C(=O)N(C)CC(=O)N[C@@H](CCc2ccc(C(F)(F)F)c(OC)c2)C(=O)N2CCCCC[C@H]2C(=O)NC2(CC(C)(C)C2)C(=O)N1C [PP2970]	9.34	A (a compound having 10 or more and less than 20 is denoted as A)	A (a compound having 10 or more and less than 20 is denoted as A)	7.64				
